Legend:
[1] = target: Carbonic anhydrase 1 (Homo sapiens, UniProt P00915); test: Inhibition of human carbonic anhydrase 1 after 15 mins by stopped flow CO2 hydration assay
[2] = target: Carbonic anhydrase 2 (Homo sapiens, UniProt P00918); test: Inhibition of human carbonic anhydrase 2 after 15 mins by stopped flow CO2 hydration assay

Sequence of Carbonic anhydrase 1 (P00915 whole entry): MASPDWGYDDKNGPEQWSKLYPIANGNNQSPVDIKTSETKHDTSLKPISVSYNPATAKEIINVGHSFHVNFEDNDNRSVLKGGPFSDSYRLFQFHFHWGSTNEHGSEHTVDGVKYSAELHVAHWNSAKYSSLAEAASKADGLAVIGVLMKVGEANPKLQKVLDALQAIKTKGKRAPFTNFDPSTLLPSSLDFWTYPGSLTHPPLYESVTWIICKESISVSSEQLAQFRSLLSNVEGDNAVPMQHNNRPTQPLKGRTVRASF

Question: For `O=S(=O)(O)ONOS(=O)(=O)O` [SODIUM IMINODISULFATE], which Ki [1] is on record?
Answer: 310 nM

Question: What about the Ki [2] of the same molecule?
Answer: 760 nM

Reference: ChEMBL document CHEMBL1641428, “Inhibition of the β-carbonic anhydrase from Streptococcus pneumoniae by inorganic anions and small molecules: Toward innovative drug design of antiinfectives?” (Bioorg Med Chem, 2011)
